We go through 31 compounds from patent US8304422B2, “Compositions and methods for inhibition of the JAK pathway” (Rigel Pharmaceuticals, Inc., priority 2007, dated 2012).

The test system of the experiment is BaF3 V617F cells; UKE-1. Nature of the experiment: Proliferation Assay (Cell Titer-Glo; Example 7). Format: cell-based. Particulars: proliferation 72 hours, inhibit JAK2 activity, cell line (BaF3 V617F or UKE-1) not stated. The method, then: BaF3 V617F cells are maintained and plated in RPMI with 10% FBS. Plating density for these cells is 1×10^5 cells/mL.
UKE-1 are maintained and plated in Iscove's DMEM containing 10% FBS, 10% equine serum, 1% penicillin/streptomycin and 1 uM hydrocortisone. Plating density for these cells is 0.4×10^6 cells/mL
The cells were resuspended in a corresponding medium at a required cell density (see above). 100μ of cell suspension was added to each well of a flat bottom 96 well white plate. The compound was serially diluted in DMSO from 5 mM in 3-fold dilutions, and then diluted 1:250 in the RPMI 1640 medium containing 5% FBS and pen/strep. 100 μL of resulting 2× compound solution was added per well in duplicate and the cells were allowed to proliferate for 72 hours at 37° C.
Proliferation was measured using Cell Titer-Glo. The substrate was thawed and allowed to come to room temperature. After removal of top 100 μL of medium from each well, 100 μL of the premixed Cell Titer-Glo reagent was added to each well. The plates were mixed on an orbital shaker for three minutes to induce lysis and incubated at ambient temperature for an additional five minutes to allow the signal to equilibrate. The Luminescence was read on the Wallac Plate Reader.
The results of the ability of the compounds of the invention to inhibit JAK2 activity, when tested in the above assay, are shown in the following Table XI wherein the level of activity (i.e., the IC50) for each compound is indicated in Table XI. The compound numbers in Table XI refers to the compounds disclosed herein as being prepared by the methods disclosed herein: […]
`CCOc1cc(C)c(Nc2ncc(C)c(Nc3ccc(CCNS(=O)(=O)C4CC4)cc3)n2)c(C)c1` [II-63] registered an IC50 of 530 nM.

`Cc1cnc(Nc2ccc(OCCN3CC(C)OC(C)C3)cc2)nc1Nc1ccc(CCNS(=O)(=O)C2CC2)cc1` (stereo not shown) [II-65] returned a half-inhibitory concentration (IC50) of 327 nM. Against the preceding compound, the IC50 is about 1.6-fold lower.

In the case of `CCOc1cc(Nc2ncc(Cl)c(Nc3ccc(CNS(=O)(=O)C4CC4)cc3)n2)cc(OC)c1OC` [II-210, 5-Chloro-N4-[4-(N-cyclopropylsulfonylamino)methylphenyl]-N2-[3,4-dimethoxy-5-ethoxyphenyl]-2,4-pyrimidinediamine], the midpoint of inhibition, the IC50, lay at 167 nM.

In turn, `CCOc1c(C)cc(Nc2ncc(Cl)c(Nc3ccc(CNS(=O)(=O)NC4CC4)cc3)n2)cc1C` [II-155, 5-Chloro-N4-[4-((N-cyclopropylamino)sulfonylamino)methylphenyl]-N2-(3,5-dimethyl-4-ethoxyphenyl)-2,4-pyrimidinediamine] displayed an IC50 of 83.1 nM. This IC50 lies about 2-fold lower than the previous one.

The compound `CCCOc1c(C)cc(Nc2ncc(Cl)c(Nc3ccc(CNS(=O)(=O)NC4CC4)cc3)n2)cc1C` [II-157, 5-Chloro-N4-[4-((N-cyclopropylamino)sulfonylamino)methylphenyl]-N2-(3,5-dimethyl-4-propoxyphenyl)-2,4-pyrimidinediamine] registered an IC50 of 138 nM.

In the case of `CCOc1cc(Nc2ncc(C)c(Nc3ccc(CNS(=O)(=O)C4CC4)cc3)n2)cc(OC)c1OC` [II-209, 5-Methyl-N4-[4-(N-cyclopropylsulfonylamino)methylphenyl]-N2-[3,4-dimethoxy-5-ethoxyphenyl]-2,4-pyrimidinediamine], the half-inhibitory concentration (IC50) is 317 nM.

The compound `COc1c(C)cc(Nc2ncc(C)c(Nc3ccc4c(c3)CCN(S(=O)(=O)C3CC3)C4)n2)cc1C` [VIII-9, N4-[(N-cyclopropylsulfonyl)-1,2,3,4-tetrahydroisoquinolin-6-yl]-N2-(3,5-dimethyl-4-methoxy)phenyl-5-methyl-2,4-pyrimidinediamine] displayed a 50% inhibitory concentration (IC50) of 179 nM. This IC50 lies about 1.8-fold lower than the previous one.

In turn, “N4-[4-(N-Cyclopropylsulfonylamino)methylphenyl]-N2-[3,4-dimethyl-4-(2-(4-morpholinyl)ethoxy)phenyl]-5-methyl-2,4-pyrimidinediamine [II-159]” showed a half-inhibitory concentration (IC50) of 47.6 nM.

For `CCOc1c(C)cc(Nc2ncc(Cl)c(Nc3ccc(CNS(=O)(=O)C4CC4)cc3)n2)cc1C` [II-211, 5-Chloro-N4-[4-(N-cyclopropylsulfonylamino)methylphenyl]-N2-[3,5-dimethyl-4-ethoxyphenyl]-2,4-pyrimidinediamine], the half-maximal inhibitory concentration (IC50) was 39.4 nM.

On to `O=S(=O)(NCc1ccc(Nc2nc(Nc3ccc(N4CCN(C5CC6CCC5C6)CC4)c(F)c3)ncc2Cl)cc1)C1CC1` (stereo not shown) [II-79, N-(4-(2-(4-(4-(bicyclo[2.2.1]heptan-2-yl)piperazin-1-yl)-3-fluorophenylamino)-5-chloropyrimidin-4-ylamino)benzyl)cyclopropanesulfonamide], for which the IC50 was found to be 3160 nM.

The compound `CCNS(=O)(=O)NCc1cccc(Nc2nc(Nc3ccc(N4CCN(C)CC4)cc3)ncc2C)c1` [II-135, N4-[(3-(Ethylamino)sulfonylamino)methylphenyl]-5-methyl-N2-[4-(4-methyl-1-piperazinyl)phenyl]-2,4-pyrimidinediamine] had an IC50 of 267 nM.

Compound `Cc1cnc(Nc2ccc(N3CCN(C4CC5CCC4C5)CC3)cc2)nc1Nc1ccc(CNS(=O)(=O)C2CC2)cc1` (stereo not shown) [II-60, N-(4-(2-(4-(4-(bicyclo[2.2.1]heptan-2-yl)piperazin-1-yl)phenylamino)-5-methylpyrimidin-4-ylamino)benzyl)cyclopropanesulfonamide] displayed a half-inhibitory concentration (IC50) of 391 nM.

As for “N2-[3,4-Dimethyl-4-(2-(4-morpholinyl)ethoxy)phenyl]-N4-[4-((N-cyclopropylamino)sulfonylamino)methylphenyl]-5-methyl-2,4-pyrimidinediamine [II-174]”, the IC50 stood at 127 nM.

Compound `COc1cc(Nc2ncc(C)c(Nc3ccc(CNS(=O)(=O)C4CC4)cc3)n2)cc(Cl)c1OC` [II-198, 5-Methyl-N4-[4-(N-cyclopropylsulfonylamino)methylphenyl]-N2-[3,4-dimethoxy-5-chlorophenyl]-2,4-pyrimidinediamine] came in with an IC50 of 116 nM.

For the compound “5-Chloro-N4-[4-[N-cyclopropylsulfonyl)-N′-(3-(4-morpholine)propion-1-yl)amino]methylphenyl]-N2-(3,5-dimethyl-4-methoxyphenyl)-2,4-pyrimidinediamine [II-141]”, inhibition was half-maximal at 73.9 nM (IC50).

As for `Cc1cnc(Nc2ccc(N3CCN(C)CC3)nc2)nc1Nc1ccc(CCNS(=O)(=O)C2CC2)cc1` [II-69], half-maximal inhibition (IC50) required 1810 nM.

In the case of `COc1cc(Nc2ncc(Cl)c(Nc3cccc(S(=O)(=O)NC(C)(C)C)c3)n2)cc(OC)c1OC` [I-15, 5-Chloro-N4-[3-(N-tert-butylsulfonyl)phenyl]-N2-[3,4,5-trimethoxyphenyl]-2,4-pyrimidinediamine], the IC50 worked out at 225 nM.

`COc1c(Cl)cc(Nc2ncc(C)c(Nc3ccc(CNS(=O)(=O)N(C)C)cc3)n2)cc1Cl` [II-102, 5-methyl-N2-[3,5-dichloro-4-methoxyphenyl]-N4-[(4-(dimethylamino)sulfonylamino)methylphenyl]-2,4-pyrimidinediamine] came in with an IC50 of 1170 nM.

`O=S(=O)(NCc1cccc(Nc2nc(Nc3ccc(-c4cccnc4)cc3)ncc2Cl)c1)C1CC1` [II-194, 5-Chloro-N4-[3-(N-cyclopropylsulfonylamino)methylphenyl]-N2-[4-(3-pyridinyl)phenyl]-2,4-pyrimidinediamine] yielded an IC50 of 1340 nM. This IC50 and that of the compound before are within 1.5-fold of each other.

As for `CCNS(=O)(=O)NCc1cccc(Nc2nc(Nc3cc(C)c(OC)c(C)c3)ncc2F)c1` [II-137, N2-(3,5-Dimethyl-4-methoxyphenyl)-N4-[(3-(ethylamino)sulfonylamino)methylphenyl]-5-fluoro-2,4-pyrimidinediamine], the IC50 is 541 nM.

Regarding `Cc1cnc(Nc2cc(C)c(OCCN3CCOCC3)c(C)c2)nc1Nc1cccc(S(=O)(=O)NC(C)(C)C)c1` [I-20], the IC50 was determined as 189 nM. This IC50 lies about 2.9-fold lower than the previous one.

Take `COc1cc(Nc2ncc(Cl)c(Nc3ccc(CNS(=O)(=O)NC4CC4)cc3C)n2)cc(C)c1OC` [II-179, 5-Chloro-N2-(3,4-dimethoxy-5-methylphenyl)-N4-[2-methyl-4-((N-cyclopropylamino)sulfonylamino)methylphenyl]-2,4-pyrimidinediamine]: the IC50 was determined as 215 nM.

The compound “5-Chloro-N2-[3,4-dimethyl-4-(2-(4-morpholinyl)ethoxy)phenyl]-N4-[2-methyl-4-((N-cyclopropylamino)sulfonylamino)methylphenyl]-2,4-pyrimidinediamine [II-183]” had a half-maximal inhibitory concentration (IC50) of 142 nM. Against the preceding compound, the IC50 is about 1.5-fold lower.

Consider `Cc1cnc(Nc2cncc(C)c2N2CCN(C)CC2)nc1Nc1ccc2c(c1)S(=O)(=O)NCC2` [VII-6, 5-Methyl-N4-[3,4-dihydro-1,1-dioxide-2H-1,2-benzothiazin-7-yl]-N2-[5-methyl-4-(N-methylpiperizin-4-yl)pyridine-3-yl]-2,4-pyrimidinediamine], for which the IC50 is 1900 nM.

With `COc1c(C)cc(Nc2ncc(Cl)c(Nc3ccc(CNS(=O)(=O)NC4CC4)cc3C)n2)cc1C` [II-175, 5-Chloro-N2-(3,5-dimethyl-4-methoxyphenyl)-N4-[2-methyl-4-((N-cyclopropylamino)sulfonylamino)methylphenyl]-2,4-pyrimidinediamine], the IC50 came out at 354 nM. Compared with the last compound, the IC50 is about 5.4-fold lower.

The compound `CCNS(=O)(=O)NCc1cccc(Nc2nc(Nc3ccc(N4CCN(C)CC4)c(C)c3)ncc2Cl)c1` [II-132, 5-Chloro-N4-[(3-(ethylamino)sulfonylamino)methylphenyl]-N2-[3-methyl-4-(4-methyl-1-piperazinyl)phenyl]-2,4-pyrimidinediamine] gave an IC50 of 1630 nM.

`CCNS(=O)(=O)NCc1cccc(Nc2nc(Nc3ccc(N4CCN(C)CC4)c(C)c3)ncc2F)c1` [II-139, N4-[3-((Ethylamino)sulfonylamino)methylphenyl]-5-fluoro-N2-[3-methyl-4-(4-methyl-1-piperazinyl)phenyl]-2,4-pyrimidinediamine] yielded a half-maximal inhibitory concentration (IC50) of 4330 nM.

`CN1CCN(c2ccc(Nc3ncc(C(F)(F)F)c(Nc4ccc(CNS(=O)(=O)C5CC5)cc4)n3)cc2)CC1` [II-127, N4-[4-(N-Cyclopropylsulfonylamino)methylphenyl]-N2-[4-(4-methyl-1-piperazinyl)phenyl]-5-trifluoromethyl-2,4-pyrimidinediamine] had an IC50 of 338 nM.

As for `CCc1cnc(Nc2cc(C)c(OC)c(C)c2)nc1Nc1ccc(CNS(=O)(=O)C2CC2)cc1` [II-81, N4-[4-(N-Cyclopropylsulfonylamino)methylphenyl]-N2-(3,5-dimethyl-4-methoxyphenyl)-5-ethyl-2,4-pyrimidinediamine], the IC50 came out at 1100 nM.

Take `COc1c(C)cc(Nc2ncc(Cl)c(Nc3cccc(CNS(=O)(=O)C4CC4)c3)n2)cc1C` [II-192, 5-Chloro-N4-[3-(N-cyclopropylsulfonylamino)methylphenyl]-N2-[3,5-dimethyl-4-methoxyphenyl]-2,4-pyrimidinediamine]: the IC50 came out at 378 nM.

`CS(=O)(=O)N1CCN(c2ccc(Nc3ncc(Cl)c(Nc4ccc(CCNS(=O)(=O)C5CC5)cc4)n3)c(C(F)(F)F)c2)CC1` [II-55, 5-Chloro-N4[4-(N-cyclopropylsulfonylamino)ethylphenyl]-N2-[4-(4-methylsulfonylpiperazino)-2-trifluoromethylphenyl]-2,4-pyrimidinediamine] showed a concentration for half-maximal inhibition (IC50) of 8880 nM.
